The source made the active and inactive calls. The calls are words filed in the database; no cut-off is given here.

Experiment [1] concerns the target T1, P2X purinoceptor 7 (Homo sapiens, UniProt Q99572).
T1 sequence (Q99572 whole entry): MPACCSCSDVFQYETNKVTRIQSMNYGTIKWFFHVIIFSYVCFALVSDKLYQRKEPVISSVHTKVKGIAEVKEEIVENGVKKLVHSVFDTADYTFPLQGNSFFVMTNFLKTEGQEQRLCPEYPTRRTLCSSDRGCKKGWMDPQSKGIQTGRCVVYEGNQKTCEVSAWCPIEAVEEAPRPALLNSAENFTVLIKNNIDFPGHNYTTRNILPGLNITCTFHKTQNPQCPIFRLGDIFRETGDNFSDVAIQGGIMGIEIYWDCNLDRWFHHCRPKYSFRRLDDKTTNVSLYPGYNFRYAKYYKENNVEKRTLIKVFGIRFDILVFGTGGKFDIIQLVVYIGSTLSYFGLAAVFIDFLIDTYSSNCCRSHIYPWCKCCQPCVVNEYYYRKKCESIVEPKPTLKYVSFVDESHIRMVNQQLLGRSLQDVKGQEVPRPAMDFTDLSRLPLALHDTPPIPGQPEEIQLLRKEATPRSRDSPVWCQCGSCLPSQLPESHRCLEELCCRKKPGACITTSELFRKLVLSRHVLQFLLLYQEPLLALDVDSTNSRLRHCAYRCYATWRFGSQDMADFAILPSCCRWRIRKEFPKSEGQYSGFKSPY
Kind of experiment: Antagonist activity at human P2X7 receptor expressed in HEK293 cells assessed as inhibition of BzATP-induced increase in fluorescence preincubated for 30 mins followed by BzATP addition and measured after 15 mins by YO-PRO-1 based inverted fluorescence microscopic analysis. Format: cell-based.

In experiment [2] the target is T2, P2X purinoceptor 7 (Homo sapiens) (UniProt Q99572).
T2 sequence (whole entry): T1 sequence (Q99572 whole entry)
Briefly: Binding affinity to human P2X7 receptor expressed in HEK293 cell membrane assessed as inhibition of [125I]-4-(1-(1-(4-iodobenzoyl)piperidin-4-yl)-1H-imidazol-5-yl)phenyl isoquinoline-5-sulfonate binding to receptor at 1 uM incubated for 60 mins by high throughput screening relative to control. Format: cell membranes.

The target of experiment [3] is T1, P2X purinoceptor 7. Briefly: Binding affinity to human P2X7 receptor expressed in HEK293 cell membrane incubated for 60 mins in presence of [125I]-4-(1-(1-(4-iodobenzoyl)piperidin-4-yl)-1H-imidazol-5-yl)phenyl isoquinoline-5-sulfonate by competitive binding assay. Format: cell membranes.
Experiment [4] has as its target T2, P2X purinoceptor 7 (Homo sapiens). Kind of experiment: Antagonist activity at human P2X7 receptor expressed in HEK293 cells assessed as inhibition of BzATP-induced increase in fluorescence at 1 uM preincubated for 30 mins followed by BzATP addition and measured after 15 mins by YO-PRO-1 based inverted fluorescence microscopic analysis. Format: cell-based. The note with it: filed as antagonist, time 45.0 min.

The target is the same in experiment [5]. Kind of experiment: Antagonist activity at human P2X7 receptor expressed in HEK293 cells assessed as inhibition of BzATP-induced inward current at 300 nM preincubated with compound for 3 mins followed by BzATP addition by whole-cell voltage clamp method. The note with it: filed as antagonist. Format: cell-based. Details: scale not given: the % may be the effect or the level left.

The target is the same in experiment [6]. Kind of experiment: Antagonist activity at human P2X7 receptor expressed in HEK293 cells assessed as inhibition of BzATP-induced inward current at 300 nM preincubated with compound for 3 mins followed by BzATP addition and measured after 25 mins of washout by whole-cell voltage clamp method. Format: cell-based. To be noted: filed as antagonist, time 28.0 min.

Experiment [7] addresses T3, P2X purinoceptor 2 (Rattus norvegicus) (UniProt P49653).
T3 sequence (whole entry): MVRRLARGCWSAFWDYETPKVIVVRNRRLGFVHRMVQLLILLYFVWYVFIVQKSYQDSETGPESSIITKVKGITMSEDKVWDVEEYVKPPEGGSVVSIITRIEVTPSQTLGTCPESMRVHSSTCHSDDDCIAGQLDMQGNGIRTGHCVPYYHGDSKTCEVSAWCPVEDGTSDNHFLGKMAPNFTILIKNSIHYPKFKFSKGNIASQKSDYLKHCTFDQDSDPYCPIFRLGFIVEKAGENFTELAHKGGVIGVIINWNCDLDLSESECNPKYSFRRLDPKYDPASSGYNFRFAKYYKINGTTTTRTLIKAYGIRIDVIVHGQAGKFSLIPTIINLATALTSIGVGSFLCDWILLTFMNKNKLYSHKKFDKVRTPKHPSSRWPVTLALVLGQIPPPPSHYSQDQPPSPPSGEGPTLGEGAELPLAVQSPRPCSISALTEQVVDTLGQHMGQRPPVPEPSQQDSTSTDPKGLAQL
Briefly: Antagonist activity at rat P2X2 receptor expressed in HEK293 cells assessed as inhibition of BzATP-induced inward current at 1 uM by whole-cell voltage clamp method. Format: cell-based.

A word on the IC50: it is the concentration that gives 50% inhibition. For orientation: inhibition means the drop in the measured response relative to a control, in per cent. As to `COc1ccc(Cl)c(C(=O)NNC(=O)c2cccc3ncccc23)c1`, the IC50 in experiment [1] is above 1000 nM. Also, the inhibition in experiment [2] was below 35%.

Consider `CNCC(=O)Nc1ccc(Cl)c(C(=O)NCc2cccc3cnccc23)c1`, for which the IC50 in experiment [1] is above 1000 nM. For the same compound, in experiment [2], the inhibition is below 35%.

In the case of `COc1ccc(Cl)c(C(=O)NNC(=O)[C@H]2CC[C@H](C(F)(F)F)CC2)c1`, in experiment [1], the IC50 was above 1000 nM. In addition, the inhibition in experiment [2] was below 35%.

On to `O=C(OCc1cccc2cnccc12)c1cc(NC(=O)[C@H]2CCCN2)ccc1Cl`, for which the IC50 in experiment [1] was above 1000 nM. In experiment [2], the inhibition is below 35%.

Take `O=C(NCc1cccc2cnccc12)c1cc(O)ccc1Cl`: in experiment [1], the IC50 was above 1000 nM. Besides, the inhibition in experiment [2] is below 35%.

As for `COc1ccc(C(=O)Nc2ccc(Cl)c(C(=O)OCc3cccc4cnccc34)c2)nc1`, the IC50 in experiment [1] is above 1000 nM. Besides, in experiment [2], the inhibition is below 35%.

Regarding `O=C(NCc1cccc(C(F)(F)F)c1Cl)[C@@H]1CCC(=O)N1C/C=C/I`, in experiment [2], the inhibition is 45%.

Take `O=C(NCc1cccc2cnccc12)c1cc(OCCF)ccc1Cl`: the IC50 in experiment [1] was above 1000 nM. The inhibition in experiment [2] is below 35%.

On to `NCC(=O)Nc1ccc(Cl)c(C(=O)OCc2cccc3cnccc23)c1`, for which the IC50 in experiment [1] was above 1000 nM. For the same compound, in experiment [2], the inhibition is below 35%.

As for `O=C(c1ccc([N+](=O)[O-])cc1)N1CCC(n2cncc2-c2ccc(OS(=O)(=O)c3cccc4cnccc34)cc2)CC1`, the inhibition in experiment [2] (filed as antagonist) turned out to be 74%. The IC50 in experiment [3] was determined as 7.91 nM.

As to `O=C1CNC(C(=O)Nc2ccc(Cl)c(C(=O)NCc3cccc4cnccc34)c2)CN1` (stereo unspecified), the IC50 in experiment [1] is above 1000 nM. The inhibition in experiment [2] was below 35%.

In the case of `COc1ccc(Cl)c(C(=O)NCc2cccc3cnccc23)c1`, in experiment [1], the IC50 was above 1000 nM. Besides, the inhibition in experiment [2] was below 35%.

For the compound `O=C(c1ccc(I)cc1)N1CCC(n2cncc2-c2ccc(OS(=O)(=O)c3cccc4cnccc34)cc2)CC1`, the result in experiment [4] and in experiment [6] was Active. For the same compound, in experiment [1], the IC50 was 0.25 nM. Also, in experiment [5], the Activity was determined as 100%. The result in experiment [7] was inactive. The inhibition in experiment [2] (filed as antagonist) amounted to 76%.

As to `O=C(c1ccc(Br)cc1)N1CCC(n2cncc2-c2ccc(OS(=O)(=O)c3cccc4cnccc34)cc2)CC1`, the inhibition in experiment [2] (filed as antagonist) is 71%. For the same compound, the IC50 in experiment [3] was 7.16 nM.

(Values after ChEMBL document CHEMBL6078726, “Synthesis and in vitro evaluation of novel compounds and discovery of a promising iodine-125 radioligand for purinergic P2X7 receptor (P2X7R)” (Bioorg Med Chem, 2025).)
